The target of one experiment is T1, EGFR (WT) (Homo sapiens, UniProt P00533).
T1 construct: purchased Invitrogen PV3872
The experiment is described as follows: Omnia continuous-read kinase assay, EGFR (WT). The note with it: read-out: EGFR inhibtion. The experiment is classed as biochemical. The source says: (§1) The protocol below describes continuous-read kinase assays to measure inherent potency of compounds against active forms of EGFR (WT) and EGFR (T790M/L858R) enzymes. The mechanics of the assay platform are best described by the vendor (Invitrogen, Carlsbad, Calif.) on their website at the following URL: http://www.invitrogen.com/content.cfm?pageid=11338 or http://www.invitrogen.com/site/us/en/home/Products-and-Services/Applications/Drug-Discovery/Target-and-Lead-Identification-and-Validation/KinaseBiology/KB-Misc/Biochemical-Assays/Omnia-Kinase-Assays.html.
(§2) Briefly, 10× stocks of EGFR-WT (PV3872) from Invitrogen and EGFR-T790M/L858R (40350) from BPS Bioscience, San Diego, Calif., 1.13×ATP (AS001A) and appropriate Tyr-Sox conjugated peptide substrates (KCZI001) were prepared in 1× kinase reaction buffer consisting of 20 mM Tris, pH 7.5, 5 mM MgCl2, 1 mM EGTA, 5 mM β-glycerophosphate, 5% glycerol (10× stock, KB002A) and 0.2 mM DTT (DS001A). 5 μL of each enzyme were pre-incubated in a Corning (#3574) 384-well, white, non-binding surface microtiter plate (Corning, NY) for 30 min. at 27° C. with a 0.5 μL volume of 50% DMSO and serially diluted compounds prepared in 50% DMSO. Kinase reactions were started with the addition of 45 μL of the ATP/Tyr-Sox peptide substrate mix and monitored every 30-90 seconds for 60 minutes at λex360/λem485 in a Synergy^4 plate reader from BioTek (Winooski, Vt.). At the conclusion of each assay, progress curves from each well were examined for linear reaction kinetics and fit statistics (R^2, 95% confidence interval, absolute sum of squares). Initial velocity (0 minutes to ˜30 minutes) from each reaction was determined from the slope of a plot of relative fluorescence units vs time (minutes) and then plotted against inhibitor concentration to estimate IC50 from log [Inhibitor] vs Response, Variable Slope model in GraphPad Prism from GraphPad Software (San Diego, Calif.).
(§3) The EGFR-WT- and EGFR T790M/L858R-modified optimized reagent conditions are: • [EGFR-WT]=5 nM, [ATP]=[…], [Y12-Sox]=[…]; and [EGFR-T790M/L858R]=3 nM, [ATP]=[…], [Y12-Sox]=[…].

The next experiment has as its target T2, EGFR (T790M/L858R) (Homo sapiens, UniProt P00533, L858R/T790M).
T2 construct: purchased BPS Bioscience 40350
The experiment is described as follows: Omnia continuous-read kinase assay, EGFR (T790M/L858R). Type of experiment: biochemical. Conditions: read-out: EGFR (T790M/L858R) inhibiton.
From the text: as §1, §2, §3

The target in another experiment is ErbB1 (Homo sapiens, UniProt P00533). The experiment is described as follows: Z'-LYTE biochemical assay, ErbB1 kinase inhibition. The note with it: @ 1 μM. How it is done:
Compounds of the present invention were assayed as inhibitors of one or more of ErbB1, ErbB2, and/or ErbB4 in a manner substantially similar to the method described by Invitrogen Corp (Invitrogen Corporation, 1600 Faraday Avenue, Carlsbad, Calif., CA; http://www.invitrogen.com/downloads/Z-LYTE_Brochure—1205.pdf) using the Z′-LYTE™ biochemical assay procedure or similar biochemical assay. The Z′-LYTE™ biochemical assay employs a fluorescence-based, coupled-enzyme format and is based on the differential sensitivity of phosphorylated and non-phosphorylated peptides to proteolytic cleavage.

Another experiment has as its target BTK (Homo sapiens, UniProt Q06187). The experiment is described as follows: Omnia assay for potency against BTK. The experiment is classed as biochemical. Conditions: read-out: BTK Inhibition.
From the text: as §1, §2
The Omnia Assay Protocol for potency assessment against BTK is performed in a substantially similar manner as that described in Example 25 above except that the modified BTK-optimized reagent conditions are: • [BTK]=5 nM, [ATP]=[…], [Y5-Sox]=[…] (ATP KMapp ˜[…]).

For another experiment, the target named is T3, JAK3 (Homo sapiens, UniProt P52333).
T3 sequence (P52333 1-1124): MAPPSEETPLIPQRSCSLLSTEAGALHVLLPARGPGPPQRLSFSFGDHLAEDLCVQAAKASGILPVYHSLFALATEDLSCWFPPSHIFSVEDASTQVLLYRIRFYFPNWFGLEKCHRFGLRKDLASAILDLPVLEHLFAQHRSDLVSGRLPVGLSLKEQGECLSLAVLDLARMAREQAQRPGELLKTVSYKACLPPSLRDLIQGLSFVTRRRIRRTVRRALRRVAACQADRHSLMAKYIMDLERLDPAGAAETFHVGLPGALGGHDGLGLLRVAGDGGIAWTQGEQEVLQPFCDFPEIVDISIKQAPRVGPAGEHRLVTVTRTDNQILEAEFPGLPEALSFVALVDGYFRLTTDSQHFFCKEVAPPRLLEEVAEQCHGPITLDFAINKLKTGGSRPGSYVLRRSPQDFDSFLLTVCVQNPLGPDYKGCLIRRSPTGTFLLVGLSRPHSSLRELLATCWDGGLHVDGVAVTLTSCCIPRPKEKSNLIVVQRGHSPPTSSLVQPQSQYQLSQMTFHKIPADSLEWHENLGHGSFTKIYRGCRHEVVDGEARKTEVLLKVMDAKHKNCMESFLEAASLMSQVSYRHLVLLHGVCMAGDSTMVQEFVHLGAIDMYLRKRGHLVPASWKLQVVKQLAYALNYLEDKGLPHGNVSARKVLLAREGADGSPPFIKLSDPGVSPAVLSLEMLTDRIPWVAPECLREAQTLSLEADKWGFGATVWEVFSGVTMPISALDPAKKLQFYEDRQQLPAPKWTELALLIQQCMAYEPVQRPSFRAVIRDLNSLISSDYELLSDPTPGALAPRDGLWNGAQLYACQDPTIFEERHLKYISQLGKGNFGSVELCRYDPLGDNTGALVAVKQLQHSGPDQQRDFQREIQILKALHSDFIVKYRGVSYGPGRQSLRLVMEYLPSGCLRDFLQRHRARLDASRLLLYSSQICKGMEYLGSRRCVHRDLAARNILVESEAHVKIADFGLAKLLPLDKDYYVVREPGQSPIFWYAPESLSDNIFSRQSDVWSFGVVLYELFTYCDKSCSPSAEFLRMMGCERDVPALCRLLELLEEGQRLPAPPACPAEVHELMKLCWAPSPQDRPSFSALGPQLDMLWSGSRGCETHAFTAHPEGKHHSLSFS
In words: Omnia assay for potency against JAK3. The experiment is classed as biochemical. Conditions: read-out: JAK3 Inhibition.
From the text: as §1, §2
The Omnia Assay Protocol for potency assessment against JAK3 is performed in a substantially similar manner as that described in Example 25 above except that the modified JAK3-optimized reagent conditions are: • [JAK3]=5 nM, [ATP]=5 μM, [Y12-Sox]=5 μM (ATP KMapp ˜[…]).

Among the data in patent US9296704B2, “Substituted pyrimidines as protein kinase inhibitors” (CELGENE AVILOMICS RESEARCH, INC., priority 2007, dated 2016) are IC50 and inhibition values, retold here.

Sequence of BTK (Q06187 whole entry): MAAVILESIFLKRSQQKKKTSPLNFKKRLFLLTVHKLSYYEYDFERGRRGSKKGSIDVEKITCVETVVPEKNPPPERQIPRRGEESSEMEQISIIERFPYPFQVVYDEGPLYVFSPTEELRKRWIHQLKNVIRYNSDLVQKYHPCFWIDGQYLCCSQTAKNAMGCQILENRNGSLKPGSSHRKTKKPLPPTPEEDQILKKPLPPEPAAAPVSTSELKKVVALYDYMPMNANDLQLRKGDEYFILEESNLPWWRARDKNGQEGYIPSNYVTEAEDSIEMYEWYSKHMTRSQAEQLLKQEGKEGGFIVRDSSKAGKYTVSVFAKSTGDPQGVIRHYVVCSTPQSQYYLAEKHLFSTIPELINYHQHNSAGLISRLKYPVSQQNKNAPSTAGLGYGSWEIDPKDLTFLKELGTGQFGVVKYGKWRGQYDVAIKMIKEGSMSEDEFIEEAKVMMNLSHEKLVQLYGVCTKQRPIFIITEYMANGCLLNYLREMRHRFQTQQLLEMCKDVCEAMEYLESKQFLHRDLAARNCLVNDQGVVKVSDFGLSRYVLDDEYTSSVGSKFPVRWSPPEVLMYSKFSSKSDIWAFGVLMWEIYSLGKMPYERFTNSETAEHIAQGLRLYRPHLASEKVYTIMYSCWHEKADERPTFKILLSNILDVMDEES
T2 sequence (P00533 25-1210 T790M/L858R): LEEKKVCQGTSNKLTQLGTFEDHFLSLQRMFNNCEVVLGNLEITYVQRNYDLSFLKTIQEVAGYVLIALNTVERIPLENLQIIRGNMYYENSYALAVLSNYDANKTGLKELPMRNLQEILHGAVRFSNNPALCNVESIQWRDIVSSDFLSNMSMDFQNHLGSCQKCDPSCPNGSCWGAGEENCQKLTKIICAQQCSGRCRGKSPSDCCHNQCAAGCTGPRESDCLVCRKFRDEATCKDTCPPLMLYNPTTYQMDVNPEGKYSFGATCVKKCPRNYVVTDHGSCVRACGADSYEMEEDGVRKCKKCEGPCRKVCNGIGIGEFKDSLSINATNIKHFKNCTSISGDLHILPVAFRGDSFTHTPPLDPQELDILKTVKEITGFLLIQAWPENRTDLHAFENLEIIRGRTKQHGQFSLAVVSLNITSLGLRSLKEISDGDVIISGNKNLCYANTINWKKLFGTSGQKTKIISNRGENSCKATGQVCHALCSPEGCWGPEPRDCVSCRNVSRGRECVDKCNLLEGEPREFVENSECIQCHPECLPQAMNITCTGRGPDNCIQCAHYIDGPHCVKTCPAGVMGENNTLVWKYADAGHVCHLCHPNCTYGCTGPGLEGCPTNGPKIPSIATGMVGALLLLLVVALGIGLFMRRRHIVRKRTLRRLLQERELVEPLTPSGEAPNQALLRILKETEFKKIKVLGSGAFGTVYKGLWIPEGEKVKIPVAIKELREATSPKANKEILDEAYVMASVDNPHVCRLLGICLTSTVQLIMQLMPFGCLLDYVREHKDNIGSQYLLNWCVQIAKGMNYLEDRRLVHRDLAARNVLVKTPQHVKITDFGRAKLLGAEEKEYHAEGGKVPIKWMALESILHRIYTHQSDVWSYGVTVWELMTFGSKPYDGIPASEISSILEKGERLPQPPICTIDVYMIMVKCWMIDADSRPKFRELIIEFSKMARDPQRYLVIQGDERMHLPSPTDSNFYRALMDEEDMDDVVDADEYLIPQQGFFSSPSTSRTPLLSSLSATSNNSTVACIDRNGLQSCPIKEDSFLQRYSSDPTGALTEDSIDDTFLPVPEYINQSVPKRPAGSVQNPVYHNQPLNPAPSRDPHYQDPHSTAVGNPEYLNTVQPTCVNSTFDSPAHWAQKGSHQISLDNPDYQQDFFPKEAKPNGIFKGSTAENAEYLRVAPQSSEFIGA
T1 sequence (P00533 25-1210): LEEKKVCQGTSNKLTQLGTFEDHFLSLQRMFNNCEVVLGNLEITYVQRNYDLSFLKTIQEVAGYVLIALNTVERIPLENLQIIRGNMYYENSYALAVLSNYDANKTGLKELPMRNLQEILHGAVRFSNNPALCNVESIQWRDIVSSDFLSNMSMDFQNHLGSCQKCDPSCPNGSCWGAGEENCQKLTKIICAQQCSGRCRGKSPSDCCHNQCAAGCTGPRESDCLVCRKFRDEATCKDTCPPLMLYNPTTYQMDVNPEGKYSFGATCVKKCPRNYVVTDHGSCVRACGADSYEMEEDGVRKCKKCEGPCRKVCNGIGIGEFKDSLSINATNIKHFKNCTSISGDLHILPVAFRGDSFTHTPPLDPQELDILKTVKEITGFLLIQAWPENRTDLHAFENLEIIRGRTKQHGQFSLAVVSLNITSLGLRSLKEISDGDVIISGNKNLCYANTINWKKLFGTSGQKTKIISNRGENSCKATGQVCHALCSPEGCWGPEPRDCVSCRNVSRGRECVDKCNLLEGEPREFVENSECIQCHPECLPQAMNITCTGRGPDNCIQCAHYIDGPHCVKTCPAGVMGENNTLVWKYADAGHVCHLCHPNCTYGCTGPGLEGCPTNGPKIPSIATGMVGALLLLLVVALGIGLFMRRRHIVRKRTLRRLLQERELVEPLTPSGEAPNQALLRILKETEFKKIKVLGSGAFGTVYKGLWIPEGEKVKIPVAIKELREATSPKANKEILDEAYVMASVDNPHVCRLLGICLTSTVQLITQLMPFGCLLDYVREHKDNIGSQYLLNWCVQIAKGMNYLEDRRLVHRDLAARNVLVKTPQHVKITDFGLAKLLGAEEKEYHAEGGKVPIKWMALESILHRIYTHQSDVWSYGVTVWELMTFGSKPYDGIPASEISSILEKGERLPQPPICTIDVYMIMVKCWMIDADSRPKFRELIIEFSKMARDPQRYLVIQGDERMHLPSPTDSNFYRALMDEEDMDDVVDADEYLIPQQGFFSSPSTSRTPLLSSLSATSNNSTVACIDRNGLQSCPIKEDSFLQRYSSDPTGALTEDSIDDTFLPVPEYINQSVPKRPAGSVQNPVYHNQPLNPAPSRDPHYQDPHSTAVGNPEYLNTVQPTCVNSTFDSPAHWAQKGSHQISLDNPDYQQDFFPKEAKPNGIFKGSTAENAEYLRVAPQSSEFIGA
Sequence of ErbB1 (P00533 25-1210): as above

Take `C#Cc1cccc(Nc2cc(Nc3cccc(C#C)c3)ncn2)c1` [I-11, N^4,N^6-bis(3-ethynylphenyl)pyrimidine-4,6-diamine]: the IC50 at EGFR (WT) is 10 to 100 nM; at EGFR (T790M/L858R), not below 10000 nM; on BTK, not below 10000 nM; at JAK3 it was not below 10000 nM. On ErbB1, this compound yielded an inhibition at 1 µM of 79%.
As to `CN(C)C/C=C/C(=O)Nc1cccc(Nc2cc(Nc3ccc(OCc4cccc(F)c4)c(Cl)c3)ncn2)c1` [I-46], the IC50 on EGFR (WT) was not above 10 nM; at EGFR (T790M/L858R), not above 10 nM; at BTK, 100 to 1000 nM; at JAK3, 1000 to 10000 nM.
For the compound `N#CC1(C(=O)Nc2cccc(Nc3cc(Nc4ccc(F)c(Cl)c4)ncn3)c2)CC1` [I-47, N-[3-(6-{3-chloro-4-fluorophenylamino}pyrimidin-4-yl)amino]phenyl-1-cyanocyclopropanecarboxamide], the IC50 is not above 10 nM at EGFR (WT), not below 10000 nM at EGFR (T790M/L858R), not below 10000 nM at BTK and not below 10000 nM at JAK3.
As to `CN(C)C/C=C/C(=O)N(C)c1cccc(Nc2cc(Nc3ccc(F)c(Cl)c3)ncn2)c1` [I-48], the IC50 on EGFR (WT) was 100 to 1000 nM; on EGFR (T790M/L858R), 100 to 1000 nM; at BTK, 10 to 100 nM; at JAK3, not below 10000 nM.
`O=C(CCl)Nc1cccc(Nc2cc(Nc3ccc(F)c(Cl)c3)ncn2)c1` [I-49, 2-chloro-N-{3-[6-(3-chloro-4-fluorophenylamino)-pyrimidin-4-ylamino]-phenyl}-acetamide]: the IC50 at EGFR (WT), on EGFR (T790M/L858R), on BTK and at JAK3 was not above 10 nM each time.
For `CC(Cl)C(=O)Nc1cccc(Nc2cc(Nc3ccc(F)c(Cl)c3)ncn2)c1` (stereo not shown) [I-50)], the IC50 at EGFR (WT) was not above 10 nM; on EGFR (T790M/L858R), 10 to 100 nM.
In the case of `O=C(Nc1cccc(Nc2cc(Nc3ccc(F)c(Cl)c3)ncn2)c1)C1(C(F)(F)F)CC1` [I-51, N-[3-(6-{3-chloro-4-fluorophenyl}aminopyrimidin-4-yl)aminophenyl]-1-trifluoromethylcyclopropanecarboxamide], the IC50 on EGFR (WT) is not above 10 nM; on EGFR (T790M/L858R) it was 1000 to 10000 nM; on BTK, not below 10000 nM; at JAK3 it was not below 10000 nM.
For the compound `C=CC(=O)N(C)c1cccc(Nc2cc(Nc3ccc(F)c(Cl)c3)ncn2)c1` [I-53, N-3-[6-(3-chloro-4-fluorophenylamino)pyrimidin-4-yl]aminophenyl-N-methyl-2-propenamide], the IC50 at EGFR (WT) was 10 to 100 nM; at EGFR (T790M/L858R) it was 100 to 1000 nM; on BTK, 10 to 100 nM; at JAK3, 100 to 1000 nM.
Take `Cc1ccc(NC(=O)/C=C/CN(C)C)cc1Nc1cc(Nc2ccc(F)c(Cl)c2)ncn1` [I-54, (E)-N-[3-(6-{3-Chloro-4-fluorophenyl}amino-pyrimidin-4-ylamino)-4-methylphenyl]-4-(dimethylamino)but-2-enamide]: the IC50 was not above 10 nM at EGFR (WT), not above 10 nM on EGFR (T790M/L858R), 100 to 1000 nM on BTK and 1000 to 10000 nM on JAK3.
In the case of `C=CC(=O)Nc1cccc(Nc2cc(Nc3ccc(Br)cc3F)ncn2)c1` [I-55], the IC50 on EGFR (WT) was not above 10 nM; on EGFR (T790M/L858R), not above 10 nM; at BTK it was 10 to 100 nM; on JAK3 it was 10 to 100 nM.
On to `O=C(/C=C/CN1CCCC1)Nc1cccc(Nc2cc(Nc3ccc(F)c(Cl)c3)ncn2)c1` [I-56], for which the IC50 on EGFR (WT) was not above 10 nM; on EGFR (T790M/L858R), not above 10 nM; on BTK, 10 to 100 nM; on JAK3 it was 10 to 100 nM.
For the compound `Cc1cccc(Nc2cc(Nc3cccc(NC(=O)/C=C/CN4CCNCC4)c3)ncn2)c1` [I-57, (E)-N-3-(6-[3-methylphenyl]aminopyrimidin-4-yl)aminophenyl-4-piperazinyl-2-butenamide], the IC50 on EGFR (T790M/L858R) was 100 to 1000 nM; on BTK, 1000 to 10000 nM; at JAK3, not below 10000 nM.
Take `C#CCN(C)C/C=C/C(=O)Nc1cccc(Nc2cc(Nc3cccc(C)c3)ncn2)c1` [I-58, (E)-N-3-(6-[3-methylphenyl]aminopyrimidin-4-yl)aminophenyl-4-(methyl-prop-2-ynyl)amino-2-butenamide]: the IC50 at EGFR (T790M/L858R) lay within 100 to 1000 nM; at BTK it was 1000 to 10000 nM; on JAK3 it was 100 to 1000 nM.
Turning to `COc1ccc(NC(=O)/C=C/CN(C)C)cc1Nc1cc(Nc2ccc(F)c(Cl)c2)ncn1` [I-59], the IC50 at EGFR (WT) was not above 10 nM; at EGFR (T790M/L858R), not above 10 nM; at BTK, 100 to 1000 nM; at JAK3 it was 1000 to 10000 nM.
Consider `CC(=O)N1CCN(C/C=C/C(=O)Nc2cccc(Nc3cc(Nc4cccc(C)c4)ncn3)c2)CC1` [I-60, (E)-N-3-(6-[3-methylphenylamino]-pyrimidin-4-yl)aminophenyl-4-(4-acetylpiperazin-1yl)-2-butenamide], for which the IC50 was 1000 to 10000 nM on EGFR (WT), 100 to 1000 nM at EGFR (T790M/L858R), 1000 to 10000 nM at BTK and 1000 to 10000 nM on JAK3.
`[2H]C([2H])([2H])N(C/C=C/C(=O)Nc1cccc(Nc2cc(Nc3ccc(F)c(Cl)c3)ncn2)c1)C([2H])([2H])[2H]` [I-61]: the IC50 at EGFR (T790M/L858R) was not above 10 nM; at BTK, 10 to 100 nM; on JAK3, 10 to 100 nM.
As to `C=CC(=O)Nc1cccc(Nc2cc(Nc3ccccc3)ncn2)c1` [I-67, N-3-[6-(phenylamino)-pyrimidin-4-yl]aminophenylpropenamide], the IC50 at EGFR (WT) is not above 10 nM; at EGFR (T790M/L858R), not above 10 nM; on BTK, 10 to 100 nM; at JAK3 it was not above 10 nM.
As to `C=CC(=O)N1CCCC(Nc2cc(Nc3ccc(Oc4ccccc4)cc3)ncn2)C1` (stereo not shown) [I-86, 1-(3-(6-(4-phenoxyphenylamino)pyrimidin-4-ylamino)piperidin-1-yl)prop-2-en-1one], the IC50 on EGFR (WT) was 10 to 100 nM; on BTK it was 10 to 100 nM; at JAK3 it was not below 10000 nM.
